The inhibition is the share of the control response that was lost under treatment.

This note sets out measurements from patent US4450269A, “Mono-5-substituted-3-chloro-4H-1,2,6-thiadiazin-4-one antifungal agents” (FMC Corporation, priority 1980, dated 1984).

Assay [1] has as its system Phytophthora infestans. In words: whole plant or invertebrate. It is filed as in vivo. The conditions noted are these: Phytophthora infestans, in Solanum lycopersicum, foliar, read-out: Percent Disease Control, foliar, tomato late blight, 150 ppm, protective.
The test system of assay [2] is Rhizoctonia solani. In words: Mycelial growth test. In kind it is cell-based. The conditions noted are these: Rhizoctonia solani, 72 h, RS, read-out: Percent Fungus Growth Inhibition. From the text:
| RS = Rhizoctonia solani

Regarding `O=c1c(Cl)nsnc1Oc1cccc(C(F)(F)F)c1` [Compound 44, 3-chloro-5-[(3-trifluoromethyl)phenoxy]-4H--1,2,6-thiadiazin-4-one], the pest or weed control at 150 ppm in assay [1] was determined as 0%. In addition, in assay [2], the inhibition at 5 ppm worked out at 82%, the inhibition at 10 ppm came to 80%, the inhibition at 20 ppm was 96% and the inhibition at 40 ppm was found to be 100%.
The corresponding values for `O=C(O)Cc1ccccc1Oc1nsnc(Cl)c1=O` [Compound 45, 3-(2-carboxymethylphenoxy)-5-chloro-4H--1,2,6-thiadiazin-4-one] are 0%, 0%, 0%, 13% and 42%.
On to `N#CCc1ccc(Oc2nsnc(Cl)c2=O)cc1` [Compound 46, 3-chloro-5-[(4-cyanomethyl)-phenoxy]4H--1,2,6-thiadiazin-4-one], for which, in assay [1], the pest or weed control at 150 ppm was determined as 75%. Moreover, in assay [2], the inhibition at 5 ppm stood at 27%, the inhibition at 10 ppm was 56%, the inhibition at 20 ppm was found to be 64% and the inhibition at 40 ppm is 100%.
As for `CC(=O)c1ccc(Oc2nsnc(Cl)c2=O)cc1` [Compound 47, 3-(4-acetylphenoxy)-5-chloro-4H--1,2,6-thiadiazin-4-one], the pest or weed control at 150 ppm in assay [1] is 95%. In addition, in assay [2], the inhibition at 5 ppm is 58%, the inhibition at 10 ppm was 47%, the inhibition at 20 ppm was determined as 69% and the inhibition at 40 ppm came out at 78%.
The corresponding values for `CC(=O)c1cccc(Oc2nsnc(Cl)c2=O)c1` [Compound 48, 3-(3-acetylphenoxy)-5-chloro-4H--1,2,6-thiadiazin-4-one] are 98%, 64%, 24%, 64% and 76%.
The corresponding values for `CC(=O)c1ccccc1Oc1nsnc(Cl)c1=O` [Compound 49, 3-(2-acetylphenoxy)-5-chloro-4H--1,2,6-thiadiazin-4-one] are 90%, 9%, 24%, 42% and 64%.
The matching figures for `O=C(O)c1ccc(Oc2nsnc(Cl)c2=O)cc1` [Compound 50, 3-(4-carboxyphenoxy)-5-chloro-4H--1,2,6-thiadiazin-4-one]: 0%, 42%, 0%, 13% and 47%.
As for `COc1ccc(Cl)c(Oc2nsnc(Cl)c2=O)c1` [Compound 51, 3-chloro-5-[(2-chloro-5-methoxy)phenoxy]-4H--1,2,6-thiadiazin-4-one], in assay [1], the pest or weed control at 150 ppm came to 90%. Further, in assay [2], the inhibition at 5 ppm worked out at 20%, the inhibition at 10 ppm was found to be 56%, the inhibition at 20 ppm turned out to be 82% and the inhibition at 40 ppm is 100%.
In the case of `O=c1c(Cl)nsnc1Oc1ccc([N+](=O)[O-])cc1Cl` [Compound 53, 3-chloro-5-(2-chloro-4-nitrophenoxy)-4H--1,2,6-thiadiazin-4-one], the pest or weed control at 150 ppm in assay [1] worked out at 98%. In assay [2], the inhibition at 5 ppm was determined as 53%, the inhibition at 10 ppm was 53%, the inhibition at 20 ppm is 76% and the inhibition at 40 ppm was 76%.
For `Cc1cc(Oc2nsnc(Cl)c2=O)ccc1Cl` [Compound 54, 3-chloro-5-(4-chloro-3-methylphenoxy)-4H--1,2,6-thiadiazin-4-one], in assay [1], the pest or weed control at 150 ppm amounted to 0%. Moreover, in assay [2], the inhibition at 5 ppm came to 38%, the inhibition at 10 ppm stood at 42%, the inhibition at 20 ppm turned out to be 42% and the inhibition at 40 ppm turned out to be 71%.
With `Cc1cc(Cl)ccc1Oc1nsnc(Cl)c1=O` [Compound 55, 3-chloro-5-(4-chloro-2-methylphenoxy)-4H--1,2,6-thiadiazin-4-one], the pest or weed control at 150 ppm in assay [1] came to 90%. For the same compound, in assay [2], the inhibition at 5 ppm was found to be 33%, the inhibition at 10 ppm stood at 56%, the inhibition at 20 ppm was 31% and the inhibition at 40 ppm was found to be 53%.
On to `Cc1ccc(Cl)c(Oc2nsnc(Cl)c2=O)c1` [Compound 56, 3-chloro-5-[(2-chloro-5-methyl)phenoxy]-4H--1,2,6-thiadiazin-4-one], for which the pest or weed control at 150 ppm in assay [1] was 95%. In assay [2], the inhibition at 5 ppm is 33%, the inhibition at 10 ppm worked out at 78%, the inhibition at 20 ppm was found to be 100% and the inhibition at 40 ppm stood at 100%.
With `Cc1ccc(Oc2nsnc(Cl)c2=O)c(Br)c1` [Compound 57, 3-[(2-bromo-4-methyl)-phenoxy]-5-chloro-4H--1,2,6-thiadiazin-4-one], the pest or weed control at 150 ppm in assay [1] was found to be 0%. For the same compound, in assay [2], the inhibition at 5 ppm stood at 53%, the inhibition at 10 ppm came to 69%, the inhibition at 20 ppm was 80% and the inhibition at 40 ppm stood at 78%.
As for `Cc1cc(Cl)c(Oc2nsnc(Cl)c2=O)cc1C` [Compound 58, 3-chloro-5-[(2-chloro-4,5-dimethyl)phenoxy]-4H--1,2,6-thiadiazin-4-one], in assay [1], the pest or weed control at 150 ppm is 0%. Also, in assay [2], the inhibition at 5 ppm stood at 56%, the inhibition at 10 ppm amounted to 58%, the inhibition at 20 ppm amounted to 53% and the inhibition at 40 ppm came out at 64%.
The matching figures for `Cc1cc(Oc2nsnc(Cl)c2=O)cc(C)c1Cl` [Compound 59, 3-chloro-5-[(4-chloro-3,5-dimethyl)phenoxy]-4H--1,2,6-thiadiazin-4-one]: 0%, 33%, 24%, 33% and 69%.
The matching figures for `Cc1cc(Oc2nsnc(Cl)c2=O)cc(C)c1Br` [Compound 60, 3-[(4-bromo-3,5-dimethyl)-phenoxy]-5-chloro-4H--1,2,6-thiadiazin-4-one]: 0%, 42%, 31%, 42% and 56%.
Regarding `COc1cc(Oc2nsnc(Cl)c2=O)cc(OC)c1C(C)=O` [Compound 61, 3-[(4-acetyl-3,5-dimethoxy)-phenoxy]-5-chloro-4H--1,2,6-thiadiazin-4-one], in assay [1], the pest or weed control at 150 ppm came to 0%. Besides, in assay [2], the inhibition at 5 ppm came to 0%, the inhibition at 10 ppm was found to be 13%, the inhibition at 20 ppm amounted to 33% and the inhibition at 40 ppm turned out to be 47%.
